Assay results: patent US10894038B2, “Indolizine derivatives, composition and methods of use” (Shanghai Fochon Pharmaceutical Co., Ltd., priority 2015, dated 2021)

Legend:
URAT1 = URAT1 (Homo sapiens (Human), UniProt Q96S37); experiment: URAT1 in vitro inhibition activity, Method A (14C-uric acid uptake in HEK293-URAT-4 cells); type: cell-based; conditions: 50 μM 14C-uric acid, 10 min uptake
Method: The potency of the compounds of formula (I) as inhibitors of the URAT1 was determined as follow.
Cell Lines were generated in WuXi AppTec (HEK293-URAT-4: Stable cell line of HEK293 which was transfected with pcDNA3.1-URAT (Human SLC22A12 cDNA Clone, Abgent-DC07943). HEK293-PCDNA-5: Negative control cell of HEK293 which was transfected with pcDNA3.1 empty vector.
Cells were seeded onto 24-well plates at the density of 2.0×10^5 cells per well. The cells were incubated at 37° C., 5% CO2 overnight. After approximately 24 hours culture, cells were used for uptake experiments. The culture medium were removed from the wells and the cells were incubated in 0.4 ml/well of Hank's balanced salt solution (HBSS) for 10 min. HBSS was replaced with 0.18 ml/well fresh HBSS. Compounds were 5 folds serial diluted in DMSO, and then 25 folds diluted in HBSS. Compounds diluted with HBSS (10 μl) were added to relevant well of cell plates, and plates were incubated at 37° C., 5% CO2 for 15 min. The final concentration of DMSO in the assay was 0.2%. 10 μl HBSS containing radioactively labeled Urate (^14C-uric acid) was added to each well. The final concentration of ^14C-uric acid in the assay medium was 50 μM. After 10 min, the assay medium was immediately removed. The cells were washed quickly with 0.5 ml pre-chilled HBSS twice. 0.1 M NaOH (0.4 ml) was added to lyse the cells for at least 20 min. The cell lysate was collected to a scintillation vial, and scintillant (4 ml) was added and the radioactivity was counted by a liquid scintillation counter. Inhibiton % data were calculated using the formula
[formula] CPD: Signal from a well containing a test compound HC (high control): Average of signals from HEK293-URAT-4 cells LC (low control): Average of signals from HEK293-PCDNA-5.

[1] = test system: potassium oxonate-induced hyperuricemia in rats; experiment: Effect on potassium oxonate-induced hyperuricemia in rats (serum uric acid); type: in vivo, rat; conditions: male SD rats, 5 mg/kg oral; for serum uric acid levels, time after dosing 0.5 h: 0.5 h after dosing; for serum uric acid levels, time after dosing 1 h: 1 h after dosing; for serum uric acid levels, time after dosing 2 h: 2 h after dosing; for serum uric acid levels, time after dosing 3 h: 3 h after dosing; for serum uric acid levels, time after dosing 4 h: 4 h after dosing
Method: Healthy male SD rats, weighing 250±20 g, were used. In the experiment, except for 10 rats as normal control group were orally administered with distilled water, the others were orally administered with yeast extract (20 g/kg, qd×5 days). One hour after last administration, all the rats were intraperitoneal injection with 250 mg/kg potassium oxonate while normal control group was treated with an equal volume of 0.5% CMC-Na (injection volume of 2 ml/kg). After one hour, rats were anesthetized with isoflurane and the serum uric acid was determined by uric acid test strip. All the rats were divided into groups by uric acid. The model control group and experimental groups was given orally administration 0.5% CMC-Na or compounds with a dose of 10 ml/kg-bw. Phosphotungstic acid precipitation method was used to detect serum uric acids in inner canthus blood at 0.5, 1, 2, 3, 4 h after administration, respectively. Substantially, observing the effects of compounds on serum uric acids levels and calculating each of groups' AUC and the inhibition of uric acid increased area by the equation as follows: […]
As shown in the equation, AUC0 indicated the AUC of model control group, AUC1 indicated the AUC of therapy group, AUC2 indicated the AUC of normal control group.

Chain of URAT1 (Q96S37 whole entry): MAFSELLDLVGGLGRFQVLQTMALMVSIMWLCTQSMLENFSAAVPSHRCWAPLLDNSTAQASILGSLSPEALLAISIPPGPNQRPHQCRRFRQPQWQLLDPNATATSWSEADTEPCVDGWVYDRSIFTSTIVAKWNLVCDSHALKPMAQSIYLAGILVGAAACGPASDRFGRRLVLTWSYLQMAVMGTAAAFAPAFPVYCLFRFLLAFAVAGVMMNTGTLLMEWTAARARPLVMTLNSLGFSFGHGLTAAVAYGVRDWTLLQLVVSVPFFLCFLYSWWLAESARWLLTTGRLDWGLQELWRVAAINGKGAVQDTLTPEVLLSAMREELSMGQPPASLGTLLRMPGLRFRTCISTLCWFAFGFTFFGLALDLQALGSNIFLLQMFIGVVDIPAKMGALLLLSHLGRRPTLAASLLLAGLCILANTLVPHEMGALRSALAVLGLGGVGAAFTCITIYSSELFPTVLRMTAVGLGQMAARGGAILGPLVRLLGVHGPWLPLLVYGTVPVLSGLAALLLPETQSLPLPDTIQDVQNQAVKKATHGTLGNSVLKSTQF

IC50 (URAT1)	Compound	serum uric acid levels, time after dosing 0.5 h [1]	serum uric acid levels, time after dosing 1 h [1]	serum uric acid levels, time after dosing 2 h [1]	serum uric acid levels, time after dosing 3 h [1]	serum uric acid levels, time after dosing 4 h [1]
0.03 µM	N#Cc1ccc(-c2cnccc2SC2(C(=O)O)CCC2)n2cccc12 [Example 1, 1-((3-(8-Cyanoindolizin-5-yl)pyridin-4-yl)thio)cyclobutane-1-carboxylic acid]	492.8 ± 82.4 µmol/L	506.0 ± 88.5 µmol/L	407.7 ± 100.7 µmol/L	343.2 ± 84.3 µmol/L	289.8 ± 77.8 µmol/L
0.11 µM	Cc1cc2c(C#N)ccc(-c3cnccc3SC3(C(=O)O)CCC3)n2c1 [Example 5, 1-((3-(8-cyano-2-methylindolizin-5-yl)pyridin-4-yl)thio)cyclobutane-1-carboxylic acid]	–	–	–	–	–
0.044 µM	N#Cc1ccc(-c2cnccc2SC2(C(=O)O)CCC2)n2cc(C(F)(F)F)cc12 [Example 7, 1-((3-(8-cyano-2-(trifluoromethyl)indolizin-5-yl)pyridin-4-yl)thio)cyclobutane-1-carboxylic acid]	485.3 ± 79.3 µmol/L	510.0 ± 103.7 µmol/L	460.6 ± 87.4 µmol/L	381.3 ± 84.3 µmol/L	307.9 ± 71.0 µmol/L
